What was measured:
[1] = tested on: 3T3-L1 white pre-adipocytes; assay: Differentiation and gene expression of 3T3-L1 white pre-adipocytes under brown adipogenic conditions; assay type: cell-based
Procedure: (§1) C2C12, 3T3-L1 and C3H10T1/2 cells were purchased from ATCC. Primary brown pre-adipocytes were kindly donated by Prof. C. Ronald Kahn (Harvard University). […] Then cells were switched to 10% FBS DMEM containing 850 nM insulin and 1 nM T3 for another 4-6 days. To stimulate thermogenesis, cells were stimulated with 10 μM forskolin for 4 h.
(§2) Total RNA from cell lines were purified using Qiagen kit, and total RNA from mouse tissues was extracted using Trizol. Complementary DNA was prepared from total RNA with the iScript DNA synthesis kit (Bio-Rad). Quantitative PCR reactions contained SYBR-Green fluorescent dye (ABI). RT-PCR was also used to confirm some gene expression. Relative mRNA expression was determined by the ΔΔ-Ct method with GAPDH as an endogenous control.

[2] = tested on: C3H10T1/2 mesenchymal cells; assay: Adipogenic induction and gene expression in C3H10T1/2 mesenchymal cells; assay type: cell-based
Procedure: as §1, §2

[3] = tested on: primary brown pre-adipocytes (pre-BAT); assay: Differentiation of primary brown pre-adipocytes; assay type: cell-based
Procedure: (§3) C2C12, 3T3-L1 and C3H10T1/2 cells were purchased from ATCC. Primary brown pre-adipocytes were kindly donated by Prof. C. Ronald Kahn (Harvard University). Primary myoblasts were purified from mouse limb muscles and cultured in growth medium (F10+20% FBS+5 ng/ml bFGF) in Matrigel-coated plates (Xiao et al., Cell Res 21, 350-364 (2011)). Adipocyte differentiation was induced by treating cells for 2 days in basal adipogenesis medium (AM) (850 nM insulin, 1 nM T3, 0.5 mM isobuylmethylxanthine, […] indomethacin, 5 μM dexamethasone in10% FBS DMEM). Then cells were switched to 10% FBS DMEM containing 850 nM insulin and 1 nM T3 for another 4-6 days. To stimulate thermogenesis, cells were stimulated with 10 μM forskolin for 4 h.
as §2
Primary brown pre-adipocytes cells efficiently differentiated into brown adipose tissue in the conventional adipogenesis medium.

C2C12 myoblast cell line = assay: Adipogenesis of C2C12 myoblasts, Oil-red-O staining of lipid droplets (high-throughput phenotypic screen and follow-up); assay type: cell-based, mouse
Procedure: as §3
To identify small molecules that mimic the BAT-inducing activity of Prdm16, a high-throughput phenotypic screen of 20,000 compounds was performed using the C2C12 myoblast cell line with lipid droplets stained by Oil-red-O (ORO) as readout (FIG. 1A). […] In the basal adipogenesis medium (AM), no adipocyte-like cells could be induced from C2C12 myoblasts.

[4] = tested on: C2C12 cells over-expressing RXRα, RXRβ or RXRγ; assay: Bexarotene in C2C12 cells overexpressing RXRα, RXRβ or RXRγ; assay type: cell-based, mouse
Procedure: as §3
Mouse retinoid X receptor-alpha (RXRα) and retinoid X receptor-gamma (RXRγ) plasmids were from Dr. Ronald Evans (Salk Institute) and mouse RXRβ plasmid was purchased from Origene. These three RXR fragments were subcloned into pMXs vectors to generate a retrovirus construct (Yamanaka lab, Gladstone Institutes). Non-target shRNA(shNT), shRXRα, shRXRβ, and shRXRγ lentivirus constructs were purchased from Sigma-Aldrich. Retrovirus and lentivirus constructs were packaged in Plat E and 293T cells, respectively.
as §2
To further characterize the role of retinoid receptors, the RXRα, RXRβ and RXRγ subtype receptors were overexpressed in C2C12 cells.

[5] = Bexarotene in high fat diet mice: body weight, fat weights, GTT, ITT; assay type: in vivo, C57BL/6J mice; settings: 50 mg/kg daily i.p., high fat diet 4 weeks
Procedure: Male mice (8-week-old, C57BL/6J) were housed in metabolism cages and maintained on a 12 h light-dark cycle at 23° C. The mice were fed a high fat diet (HFD) (21.9 kJ/g, 60% of energy as fat, 20% of energy as protein, 20% of energy as carbohydrate; D12492; Research Diet, New Brunswick, N.J., USA) for four weeks.
Glucose and insulin tolerance tests were performed on the mice at the end of the four week dosing period. Mice were fasted overnight and injected intraperitoneally (i.p.) with 20% glucose at a dose of 2 g/kg body weight for glucose tolerance tests (GTTs). For insulin tolerance tests (ITTs), mice were starved for 6 h and i.p. injected with 0.5 U/kg body weight of recombinant human insulin (Eli Lilly). Blood glucose was monitored from the tail vein blood using a glucometer (ACCU-CHEK Advantage; Roche Diagnostics China, Shanghai, China) at various time points. Mouse body weight, subcutaneous (inguinal fat; SubQ fat), and epididymal adipose tissue weight (epidi weight) were also determined at the end of the 4 week test.

primary myoblasts = assay: Bexarotene with PRDM16 overexpression in primary myoblasts; assay type: cell-based, mouse
Procedure: as §3, §2

C2C12 cells [6] = settings: 2-day treatment
Procedure: Mouse genome-wide gene expression analyses were performed using Affymetrix Mouse Gene 1.0 ST Array. […] Microarray analyses were performed in duplicate from independent biologic samples, according to the standard Affymetrix Genechip protocol. Data were normalized and analyzed using Affymetrix Expression Console and Transcriptome Analysis Console (TAC) software. […] The differential expression gene list was further analyzed in DAVID GO functional annotation and GO-Elite (Zambon et al., Bioinformatics 28: 2209-2210 (2012)).

C2C12 cells [7] = assay: Real-time PCR gene expression in C2C12 cells during adipogenesis; assay type: cell-based, mouse
Procedure: as §3, §2

[8] = Oral bexarotene in chow-fed mice: body weight, indirect calorimetry, fat depots, tissue qPCR; assay type: in vivo, C57BL/6N mice; settings: 50 mg/kg/day oral, 4 weeks
Procedure: as §2
C57BL/6N mice were fed ad libitum a standard laboratory chow diet (LabDiet 5053, LabDiet, Purina Mills, Richmond, Ind.). Animals were housed under 12-hour light-dark cycles with controlled temperature (23±1° C.). […] All animal experiments were conducted in accordance with the institutional Guidelines for humane treatment of laboratory animals of HKU Animal Care and Use Committee.
Whole-body oxygen consumption was measured using an open circuit indirect calorimetry system with automatic temperature and light controls (Columbus Instruments). Mice had access ad libitum to chow and water in respiration chambers, and data were recorded for a 48 h period […] acclimatized for 24 h.

[9] = tested on: primary mouse embryonic fibroblast (MEF) cells; assay: Adipogenesis and gene expression in primary mouse embryonic fibroblasts; assay type: cell-based
C3H10T1/2 cells = assay: Ciclopirox and IOX2 gene expression in C3H10T1/2 cells; assay type: cell-based; settings: 0.1 μM to 50 μM
Procedure: as §3, §2
C3H10T1/2 cells were incubated in concentrations of ciclopirox and IOX2 that varied from 0.1 μM to 50 μM. Gene expression levels of genes correlated with the brown adipose tissue phenotype was measured using procedures described in Example 1.

[10] = brown adipogenic differentiation conditions

CN1c2ccc([N+](=O)[O-])cc2N=C(c2ccc(C(=O)O)cc2)c2cc3c(cc21)C(C)(C)CCC3(C)C [HX531]
white adipose tissue adipogenesis [1]: promoted
white adipose tissue adipogenesis [2]: promoted
Bex-induced BAT differentiation ([3]; with bexarotene): reduced
bexarotene-induced brown adipogenic induction (C2C12 myoblast cell line; with bexarotene, first 2 days, 10 μM each): completely abolished

C=C(c1ccc(C(=O)O)cc1)c1cc2c(cc1C)C(C)(C)CCC2(C)C [bexarotene]
response to forskolin stimulation [1]: more robust response
BAT features (small lipid droplets, Ucp1 expression) [1, 10]: induced
white adipose tissue differentiation and PPARγ expression [1, 10]: significantly suppressed
cells reprogrammed to brown adipose-like cells with multilocular lipid droplets ([4]; RXRα or RXRγ overexpression): nearly all cells
Prdm16 and Ucp1 expression at early stage ([4]; RXRα-overexpressed C2C12 cells, before typical adipocytes appeared): induced Prdm16 expression and even more dramatically induced Ucp1 expression
myogenic genes Myf5, MyoD, MyoG and MHCβ ([4]; bexarotene/RXR reprogrammed cells): dramatically attenuated
Ucp1 expression response to forskolin ([4]; bexarotene/RXR-induced BAT-like cells): robustly responded
glucose tolerance test [5]: improved glucose homeostasis
insulin tolerance test [5]: responded to insulin more sensitively
body weight ([5]; vs control): lower body weight
epididymal adipose tissue ([5]; vs control): less epididymal adipose tissue
subcutaneous (inguinal) fat ([5]; vs control): less subcutaneous fat
induction of Ucp1 and Pgc1α expression compared with cPGI2 [2]: much greater than that of the COX-2 agonist cPGI2
brown phenotype (thermogenic gene expression to forskolin stimulation) ([2]; 2 days at the beginning of adipogenic induction): induced the brown phenotype
small multilocular lipid droplets and BAT-specific genes Ucp1, Prdm16, PPARα, Pgc1α, Cox7a1, Cox8b ([2]; RXRα or RXRγ overexpression, adipogenic induction): induced
potentiation of Prdm16 overexpression-induced Ucp1 expression (primary myoblasts; Prdm16 overexpression): more than fourfold
lipid droplet size (primary myoblasts; added to PRDM16 overexpression vs PRDM16 overexpression alone): much smaller lipid droplets
expression of PPARγ and BAT-associated genes incl. Prdm16 and Pgc1α [3]: higher levels of expression
induction of Ucp1 and Pgc1α expression in response to forskolin ([3]; differentiated BAT adipocytes): potentiated
expression of browning genes Fgf21, Pgc1α, Ppargc1a, Acsl1, Tbx15, Ptgs2, G0S2 (C2C12 cells [6]): increased expression
white adipogenesis-associated genes Bmp4 and Egr2 (C2C12 cells [6]): repressed
levels of PPARγ, Fabp4, CD36 and RXR/PPARγ targets Pex11a, Angpt14, HK2 (C2C12 cells [7]; Day 2, qPCR confirmation): significantly increased
expression of PPARγ, Prdm16 and Pgc1α (C2C12 cells [7]; adipogenesis medium, qPCR Day 6): significantly induced
response of induced BAT-like adipocytes to forskolin (Ucp1, Pgc1α) (C2C12 cells [7]; forskolin stimulation 4 h): readily responded to forskolin
Ucp1 expression in subcutaneous white adipose tissue (subWAT) ([8]; qPCR): significantly induced although to a lesser extent
thermogenic gene expression (Ucp1, Pgc1α) in brown adipose tissue ([8]; qPCR): marked augmentation
interscapular brown adipose tissue mass (absolute and portion of body weight) ([8]; vs control): increased significantly
lipid droplets in brown adipose tissue (H&E) ([8]; vs control): similar, if not smaller
white adipose tissue depots (subWAT, epiWAT) mass ([8]; vs control): no statistically significant change
body weight gain ([8]; vs saline): smaller gain in body weight
carbon dioxide release (VCO2) ([8]; vs saline): released more CO2
oxygen consumption (VO2) ([8]; vs saline): consumed more oxygen
physical activity ([8]; vs saline): without changes in physical activity
total energy expenditure (heat generation) ([8]; vs saline): significantly more total energy was expended
adipogenic reprogramming (C2C12 myoblast cell line; added for 2 days in basal adipogenesis medium): dramatically initiated adipogenic reprogramming in C2C12 cells in a dose-dependent manner
appearance of lipid droplets (Oil-red-O) (C2C12 myoblast cell line; high-throughput screen of 20,000 compounds): led to the appearance of lipid droplets
brown phenotype / browning [9]: induced a strong brown phenotype
white adipogenic phenotype [9]: apparently suppressing
Ucp1 expression ([9]; even without forskolin stimulation): induced in a dose-dependent manner

O=C(O)CNC(=O)c1c(O)c2ccccc2n(Cc2ccccc2)c1=O [IOX2]
expression of PPARγ and several brown adipocyte-specific genes (C3H10T1/2 cells): significantly induced
response of BAT-like adipocytes to forskolin (Ucp1, Pgc1α) (C3H10T1/2 cells): readily responded to forskolin

Cc1cc(C2CCCCC2)n(O)c(=O)c1 [ciclopirox]
expression of PPARγ and several brown adipocyte-specific genes (C3H10T1/2 cells): significantly induced
response of BAT-like adipocytes to forskolin (Ucp1, Pgc1α) (C3H10T1/2 cells): readily responded to forskolin

Source: patent US20170014455A1, “INDUCING BROWN FAT FATE AND FUNCTION” (The J. David Gladstone Instiutes, a testamentary trust …, priority 2014, published 2017)
